Test results as given in patent US11117892B2, “Pyrrolo-pyridine derivative compound, method for preparing same, and pharmaceutical composition containing same as active ingredient for prevention or treatment of protein kinase-related diseases” (DAEGU-GYEONGBUK MEDICAL INNOVATION FOUNDATION, priority 2017, dated 2021).

What was measured:
DYRK1A [1] = biological target: T1, DYRK1A (Homo sapiens (Human), UniProt Q13627); assay: DYRK1A kinase binding assay using LanthaScreen Eu
Description: First, 10 concentrations (9 concentrations diluted serially by 3× and DMSO) of each compounds were diluted in 1× kinase buffer A (Invitrogen, PV6135) three times the final concentration.
This antibody/kinase mixed solution was added to the assay plate where the diluted compound was loaded at the concentration of 5 μl/well. At this time, the final concentrations of the antibody and the DYRK1A were 2 nM and 5 nM respectively.
Emission ratio (Kinase Tracer Emission Antibody Emission) was calculated based on the measured values, which was presented as a dose-response curve. Then, IC50 was calculated.

DYRK1A [2] = biological target: T1, DYRK1A; assay: DYRK1A kinase inhibition, 33P-ATP filter-binding method; assay type: biochemical; conditions: IC50 grade; head prints μM, key nM
Description: Particularly, a substrate was added to a basic reaction buffer (20 mM Hepes (pH 7.5), 10 mM MgCl2, 1 mM EGTA, 0.02% Brij35, 0.02 mg/ml BSA, 0.1 mM Na3VO4, 2 mM DTT, 1% DMSO), to which cofactors necessary for the reaction were added. Then, DYRK1A kinase was added thereto, followed by mixing well. Each compound of Examples was added thereto by using acoustic technology (Echo550; nanoliter range). The mixture was left at room temperature for 20 minutes and then ^33P-ATP (specific activity 10 mCi/ml) was added to initiate the reaction. After reacting at room temperature for 2 hours, spotting was performed on P81 exchange paper. Upon completion of the reaction, kinase activity was detected using a filter-binding method.

[3] = system: Drosophila over-expressing minibrain specifically in wings; assay: wing vein developmental abnormality, Drosophila over-expressing minibrain specifically in wings; assay type: in vivo; conditions: medium supplemented with compound at 10 μM
From the text: To confirm the DYRK1A inhibitory effect of the compound according to the present invention in vivo, wings of the Drosophila model over-expressing minibrain gene specifically in wings were observed. First, in order to produce Drosophila over-expressing minibrain specifically in wings, the UAS-Minibrain transformed Drosophila was mated with the wing specific promoter MS1096-Gal4 transformed Drosophila, resulting in the production of F1 generation. Next, the effect of improving wing defects was confirmed to verify the DYRK1A inhibitory effect of the compound according to the present invention using the Drosophila DYRK1A/minibrain inhibitor discovery model. A medium supplemented with the compound at the concentration of 10 μM was prepared, in which embryos of Drosophila over-expressing minibrain specifically in wings were raised, followed by investigation of wing phenotype.

mouse pancreatic β-cell = mouse pancreatic β-cell proliferation (Ki-67/insulin staining); assay type: cell-based; conditions: mouse pancreatic β-cells cultured with compound for 72 hours
Description: It is known that when human β-cells are treated with harmine that inhibits DYRK1A, the proliferation of β-cells is promoted by increasing the transcription factor activity by inhibiting the phosphorylation of NFAT known as a phosphorylation substrate of DYRK1A.
Particularly, pancreatic Langerhans islet tissues were extracted from the mouse at 8 weeks old, followed by culture in RPMI1640 medium supplemented with 10% FCS (fetal calves serum), 5.5 mM glucose and 1% penicillin-streptomycin for 24 hours.
Next, in order to separate β-cells as single cells from the Langerhans islet, cells were washed twice with PBS, followed by centrifugation. The collected cells were left in the medium supplemented with 1 mg/ml of trypsin for 10 minutes at 37° C. The cells were shaken using a pipette every 10 seconds for 5 minutes. Trypsin reaction was terminated by adding RPMI1640 containing 10% FCS (fetal calves serum), 5.5 mM glucose and 1% penicillin-streptomycin, followed by centrifugation to collect single cells.
Then, the single cells were loaded on the laminin-coated cover glass and stabilized for 24 hours. The cells were cultured in the medium containing the compound of the present invention for 72 hours. […] The cells double-stained with Ki-67/insulin were counted under Olympus F-1000 confocal fluorescence microscope to investigate cell proliferation.

Row | SMILES | IC50 (DYRK1A [1]) [nM] | IC50 (DYRK1A [2]) [µM] | further results
1 | COc1cc(C(=O)N2CCOCC2)ccc1Nc1cc(NC2CC2)c2c(C(F)(F)F)c[nH]c2n1 [Example 95, (4-((4-(cyclopropylamino)-3-(trifluoromethyl)-1H-pyrrolo[2,3-b]pyridin-6-yl)amino)-3-methoxyphenyl) (morpholino) methanone] | 10 to 100 | – | –
2 | COc1cc(C(=O)N2CCC(N3CCOCC3)CC2)ccc1Nc1cc(NC(C)C)c2c(C(F)(F)F)c[nH]c2n1 [Example 90, (4-(4-(isopropylamino)-3-(trifluoromethyl)-1H-pyrrolo[2,3-b]pyridin-6-ylamino)-3-methoxyphenyl) (4-morpholinopiperidin-1-yl)methanone] | 10 to 100 | – | –
3 | COCCNc1cc(Nc2ccc(C(=O)N3CCOCC3)cc2OC)nc2[nH]cc(C#N)c12 [Example 4, 6-((2-methoxy-4-(morpholine-4-carbonyl)phenyl)amino)-4-((2-methoxyethyl)amino)-1H-pyrrolo[2,3-b]pyridine-3-carbonitrile] | – | > 0.1 | –
4 | COCCN(C)c1cc(Nc2ccc(C(=O)N3CCOCC3)cc2OC)nc2[nH]cc(C(F)(F)F)c12 [Example 87] | 10 to 100 | – | –
5 | CNc1cc(Nc2ccc(C(=O)N3CCC(N4CCN(C)CC4)CC3)cc2OC)nc2[nH]cc(C(F)(F)F)c12 [Example 61, (3-methoxy-4-((4-(methylamino)-3-(trifluoromethyl)-1H-pyrrolo[2,3-b]pyridin-6-yl)amino)phenyl) (4-(4-methylpiperazin-1-yl)piperidin-1-yl)methanone] | – | < 0.01 | –
6 | CNc1cc(Nc2ccc(C(=O)N3CCO[C@@H](C)C3)cc2OC)nc2[nH]cc(C#N)c12 [Example 23, (S)-6-((2-methoxy-4-(2-methylmorpholine-4-carbonyl)phenyl)amino)-4-(methylamino)-1H-pyrrolo[2,3-b]pyridine-3-carbonitrile] | – | > 0.1 | –
7 | CCNc1cc(Nc2ccc(C(=O)N3CCC(N4CCN(C)CC4)CC3)cc2OC)nc2[nH]cc(C(F)(F)F)c12 [Example 70] | 10 to 100 | – | –
8 | CNc1cc(Nc2ccc(C(=O)N3CCN(C)CC3)cc2OC)nc2[nH]cc(C(F)(F)F)c12 [Example 63, (3-methoxy-4-((4-(methylamino)-3-(trifluoromethyl)-1H-pyrrolo[2,3-b]pyridin-6-yl)amino)phenyl) (4-methylpiperazin-1-yl)methanone] | – | < 0.01 | inhibition of the wing vein developmental abnormality [3]: 43.8%
9 | CNc1cc(Nc2ccc(C(=O)N3CCOCC3)cc2OC)nc2[nH]cc(C#N)c12 [Example 1, 6-((2-methoxy-4-(morpholine-4-carbonyl)phenyl)amino)-4-(methylamino)-1H-pyrrolo[2,3-b]pyridine-3-carbonitrile] | – | > 0.1 | –
10 | COCCNc1cc(Nc2ccc(C(=O)N3CCOCC3)cc2OC)nc2[nH]cc(C(F)(F)F)c12 [Example 64, (3-methoxy-4-((4-((2-methoxyethyl)amino)-3-(trifluoromethyl)-1H-pyrrolo[2,3-b]pyridine-6yl)amino)phenyl) (morpholino)methanone] | 10 to 100 | – | –
11 | CNc1cc(Nc2cc(F)c(C(=O)N3CCN(C)CC3)cc2OC)nc2[nH]cc(C(F)(F)F)c12 [Example 60, (2-fluoro-5-methoxy-4-((4-(methylamino)-3-(trifluoromethyl)-1H-pyrrolo[2,3-b]pyridin-6-yl)amino)phenyl) (4-methylpiperazin-1-yl)methanone] | – | 0.01 to 0.1 | –
12 | CNc1cc(Nc2ccc(C(=O)N3CCOCC3)cc2OC)nc2[nH]cc(C(F)(F)F)c12 [Example 58, (3-methoxy-4-((4-(methylamino)-3-(trifluoromethyl)-1H-pyrrolo[2,3-b]pyridin-6-yl)amino)phenyl) (morpholino)methanone] | – | – | inhibition of the wing vein developmental abnormality [3]: 47.9%
13 | CCNc1cc(Nc2ccc(C(=O)N3CCOCC3)cc2OC)nc2[nH]cc(C(F)(F)F)c12 [Example 56, (4-((4-(ethylamino)-3-(trifluoromethyl)-1H-pyrrolo[2,3-b]pyridin-6-yl)amino)-3-methoxyphenyl) (morpholino)methanone] | – | < 0.01 | –
14 | CCNc1cc(Nc2ccc(C(=O)N3CCOCC3)cc2OC)nc2[nH]cc(C#N)c12 [Example 2, 4-(ethylamino)-6-((2-methoxy-4-(morpholine-4-carbonyl)phenyl)amino)-1H-pyrrolo[2,3-b]pyridine-3-carbonitrile] | – | < 0.01 | –
15 | COCCNc1cc(Nc2ccc(C(=O)N3CCC(N4CCOCC4)CC3)cc2OC)nc2[nH]cc(C(F)(F)F)c12 [Example 65, (3-methoxy-4-((4-((2-methoxyethyl)amino)-3-(trifluoromethyl)-1H-pyrrolo[2,3-b]pyridin-6-yl)amino)phenyl) (4-morpholinopiperidin-1-yl)methanone] | – | < 0.01 | –
16 | COc1cc(C(=O)N2CCC(N3CCOCC3)CC2)ccc1Nc1cc(N[C@@H](CO)C(C)C)c2c(C(F)(F)F)c[nH]c2n1 [Example 91] | 10 to 100 | – | –
17 | CCCNc1cc(Nc2ccc(C(=O)N3CCOCC3)cc2OC)nc2[nH]cc(C#N)c12 [Example 10, 6-((2-methoxy-4-(morpholine-4-carbonyl)phenyl)amino)-4-(propylamino)-1H-pyrrolo[2,3-b]pyridine-3-carbonitrile] | – | < 0.01 | –
18 | COc1ccc2c(c1)[nH]c1c(C)nccc12 [harmine, reference compound] | – | – | cell proliferation (mouse pancreatic β-cell): active
19 | CNc1cc(Nc2ccc(C(=O)N3CCC(N4CCOCC4)CC3)cc2OC)nc2[nH]cc(C(F)(F)F)c12 [Example 59, (3-methoxy-4-((4-(methylamino)-3-(trifluoromethyl)-1H-pyrrolo[2,3-b]pyridin-6-yl)amino)phenyl) (4-morpholinopiperidin-1-yl)methanone] | – | < 0.01 | –
20 | CCNc1cc(Nc2cc(OC)c(OC)c(OC)c2)nc2[nH]cc(C(F)(F)F)c12 [Example 53, N^4-ethyl-3-(trifluoromethyl)-N^6-(3,4,5-trimethoxyphenyl)-1H-pyrrolo[2,3-b]pyridine-4,6-diamine] | – | 0.01 to 0.1 | –
21 | CCNc1cc(Nc2cc(F)c(C(=O)NC3CCN(C(C)C)CC3)cc2OC)nc2[nH]cc(C(F)(F)F)c12 [Example 74] | 10 to 100 | – | –
22 | COCCNc1cc(Nc2ccc(C(=O)N3CCC(N4CCN(C)CC4)CC3)cc2OC)nc2[nH]cc(C(F)(F)F)c12 [Example 67] | – | < 0.01 | –
23 | CCNc1cc(Nc2ccc(C(=O)N3CCO[C@@H](C)C3)cc2OC)nc2[nH]cc(C#N)c12 [Example 27, (S)-4-(ethylamino)-6-((2-methoxy-4-(2-methylmorpholine-4-carbonyl)phenyl)amino)-1H-W pyrrolo[2,3-b]pyridine-3-carbonitrile] | – | > 0.1 | –
24 | COCCN(C)c1cc(Nc2ccc(C(=O)N3CCC(N4CCOCC4)CC3)cc2OC)nc2[nH]cc(C(F)(F)F)c12 [Example 88] | 10 to 100 | – | –
25 | CNc1cc(Nc2ccc(N3CCN(C)CC3)cc2OC)nc2[nH]cc(C(F)(F)F)c12 [Example 62, N^6-(2-methoxy-4-(4-methylpiperazin-1-yl)phenyl)-N^4-methyl-3-(trifluoromethyl)-1H-pyrrolo[2,3-b]pyridine-4,6-diamine] | – | – | inhibition of the wing vein developmental abnormality [3]: 47.7%
26 | COCCNc1cc(Nc2cc(OC)c(OC)c(OC)c2)nc2[nH]cc(C#N)c12 [Example 5, 4-((2-methoxyethyl)amino)-6-((3,4,5-trimethoxyphenyl)amino)-1H-pyrrolo[2,3-b]pyridine-3-carbonitrile] | – | 0.01 to 0.1 | –
27 | COCCNc1cc(Nc2ccc(C(=O)N3CCN(C)CC3)cc2OC)nc2[nH]cc(C(F)(F)F)c12 [Example 66, (3-methoxy-4-((4-((2-methoxyethyl)amino)-3-(trifluoromethyl)-1H-pyrrolo[2,3-b]pyridin-6-yl)amino)phenyl) (4-methylpiperazin-1-yl)-methanone] | 10 to 100 | – | –
28 | COCCNc1cc(Nc2cc(F)c(C(=O)NC3CCN(C)CC3)cc2OC)nc2[nH]cc(C(F)(F)F)c12 [Example 73, 2-fluoro-5-methoxy-4-((4-((2-methoxyethyl)amino)-3-(trifluoromethyl)-1H-pyrrolo[2,3-b]pyridin-6-yl)amino) (1-methylpiperidin-4-yl)benzamide] | 10 to 100 | – | –
